Common to all, as to assay: inhibition of tumour cell growth, NCI panel, 48 h
Assay [1] deals with MDA-MB-435.
The subject of assay [2] is MDA-MB-231.
Assay [3] has as its system NCI/ADR-RES.
In assay [4] the test system is HOP-18.
In assay [5] the test system is DMS-273.
Assay [6] relates to M19-MEL.
The test system of assay [7] is SNB-78.
Assay [8] deals with RXF 631.
For assay [9], the system named is DU-145.

Molecules are shown by their SMILES.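 Exposure lasted 48 hours, with cells grown in 96-well plates and compounds tested at five concentrations. At the GI50, growth is halved.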 Active and inactive are the calls of the source. No stated cut-off is given here; in the data, active = GI50 up to about 1.1 µM and inactive = higher.

Consider `CC(=O)c1ccc(NC(=O)/C(CC(=O)/C=C/c2ccccc2)=N/NC(N)=S)cc1`, for which the GI50 was > 100 µM (inactive) in assay [1], > 100 µM (inactive) in assay [2] and 50 µM (inactive) in assay [3].
On to `CCN(CC)c1c(C(=O)/C=C/c2ccc(Cl)cc2)c(-c2ccccc2)nn(C)c1=O`, for which the GI50 in assay [4] was 2.09 µM (inactive); in assay [5] it was 1.71 µM (inactive); in assay [6], 1.69 µM (inactive); in assay [7], 2.61 µM (inactive); in assay [8], 2.14 µM (inactive).
With `CC(Cc1ccccc1)NC1=NCCO1` (stereo not drawn), the GI50 in assay [2] is 16.2 µM (inactive).
Take `O=C(O)C1CC2C=CCC(C2)C1` (stereo not drawn): the GI50 in [4], in assay [5], in assay [6] and in assay [7] was > 100 µM (inactive) throughout.
As for `Nc1ccc(S(=O)(=O)c2ccc(NCN3C(=O)NC(=O)C(=O)C3=O)cc2)cc1` [ALLANTODAPSONE], the GI50 in assay [1], in assay [2] and in [3] was > 100 µM (inactive) throughout.
`CC[n+]1c(-c2ccccc2)c2cc(N)ccc2c2ccc(N)cc21` [HOMIDIUM BROMIDE]: the GI50 was 7.57 µM (inactive) in [9], 3.5 µM (inactive) in assay [1], 8.55 µM (inactive) in assay [2] and > 100 µM (inactive) in [3].
Turning to `CN1C(=O)N(C)C2(CCN(CC(CC3OCCO3)c3ccc(F)cc3)CC2)C1=O` (stereo not drawn), the GI50 in assay [9], in assay [1], in assay [2] and in assay [3] was > 100 µM (inactive) in each case.
Consider `CCOC(=O)c1c(Cl)nc2ccccc2c1N=[N+]=[N-]`, for which the GI50 in assay [1] was 21.1 µM (inactive); in [2], 16.2 µM (inactive).
For the compound `O=C(C1=C(C(=O)c2ccccc2)SC2(S1)C(C(=O)c1ccccc1)=C(C(=O)c1ccccc1)Sc1c2ssc1=O)c1ccccc1`, the GI50 was 72.8 µM (inactive) in assay [9], 70.6 µM (inactive) in assay [1], 78.9 µM (inactive) in assay [2] and > 100 µM (inactive) in assay [3].
For the compound `Cc1c2ccncc2c(C)c2c1[nH]c1ccc(OCCN(C)C)cc12`, the GI50 in assay [4] is 0.598 µM (active); in assay [5], 0.0998 µM (active); in [6] it was 0.582 µM (active); in assay [7] it was 1.13 µM (inactive); in [3], 0.0916 µM (active).
Regarding `COc1cc(C(=O)CC2OC(=O)C(Cl)=C2Cl)ccc1Cl` (stereo not drawn), the GI50 in assay [4], in assay [5], in assay [6], in [7] and in assay [8] was > 100 µM (inactive) in each case.
`N#CC1(C#N)C(c2ccccc2)NC23CCCCC2C1(C#N)C(=O)N3` (stereo not drawn): the GI50 in assay [9], in assay [1], in assay [2] and in assay [3] was > 100 µM (inactive) throughout.
Turning to `CC(C)OP(=O)(OC(C)C)/C(F)=N/Nc1ccc([N+](=O)[O-])cc1`, the GI50 in assay [5] and in [6] was > 100 µM (inactive) each time.
On to `CSc1nc2c(nc(N)n2C2OCC(O)C(O)C2O)c(=O)[nH]1` (stereo not drawn), for which the GI50 in assay [4], in assay [6], in [7] and in [8] was > 100 µM (inactive) throughout.
Regarding `COC1(O)c2cccc(Cl)c2C(=O)N1C1(C(N)=O)CCCCC1` (stereo not drawn), the GI50 in assay [4], in assay [5], in [6], in assay [7] and in assay [3] was > 100 µM (inactive) throughout.
Regarding `C[Si](C)(N[Si](C)(C)OCCc1ccccc1)OCCc1ccccc1`, the GI50 in [9], in [1] and in assay [3] was > 100 µM (inactive) each time.
Regarding `COC1=CC(=O)OC(/C=C(C)/C=C/C2=C(C)CCCC2(C)C)C1` (stereo not drawn), the GI50 in assay [5], in assay [6] and in [7] was > 100 µM (inactive) throughout.
`C[N+](C)(C)CC1CCC(C[N+](C)(C)C)C1=NO` (stereo not drawn): the GI50 in [4], in assay [6] and in [7] was > 100 µM (inactive) throughout.
For the compound `CC1SC2=NC3=C(c4ccccc4C3=O)C(c3ccccc3Cl)N2C1=O` (stereo not drawn), the GI50 in assay [5], in assay [6] and in [8] was > 100 µM (inactive) in each case.
With `CCN1CCC(O)(c2ccc(O)cc2)C(C(=O)c2ccc(O)cc2)C1` (stereo not drawn), the GI50 in [9] was 27.6 µM (inactive); in [1], 17.3 µM (inactive); in assay [2], 16.3 µM (inactive); in assay [3], 26.3 µM (inactive).
For the compound `C=C=C(Sc1ccccc1)C(C)(C)OC(C)=O`, the GI50 in assay [4] was 20 µM (inactive); in assay [9], 27.2 µM (inactive); in assay [6], 15.8 µM (inactive); in assay [7], 29.8 µM (inactive).
In the case of `N#CC(C#N)=C1CCC2C(=C(C#N)C#N)CCC12` (stereo not drawn), the GI50 in [5], in assay [6], in assay [7] and in assay [8] was > 100 µM (inactive) each time.
For `CCc1ccc2nc(-c3ccc(O)cc3)sc2c1`, the GI50 was 15 µM (inactive) in [9], 19.2 µM (inactive) in assay [1], 13.2 µM (inactive) in assay [2] and 13.5 µM (inactive) in assay [3].
Consider `C1CCCCc2nc3c(nc2CCC1)c1nc2c(nc1c1nc4c(nc31)CCCCCCCC4)CCCCCCCC2`, for which the GI50 in [4], in [7] and in assay [8] was > 100 µM (inactive) in each case.
Turning to `COC(=O)/C=C1/N=C(N(C)/N=C/c2ccccc2)NC1=O`, the GI50 in assay [9], in assay [2] and in [3] was > 100 µM (inactive) each time.
In the case of `O=C(O)C(SC(=S)c1ccc(C(=S)SC(C(=O)O)c2ccccc2)cc1)c1ccccc1` (stereo not drawn), the GI50 in assay [5] was 47.2 µM (inactive); in [7] it was > 100 µM (inactive); in assay [8] it was > 100 µM (inactive).
Take `COc1ccc(Nc2cnc3cc(N)ccc3n2)cc1OC`: the results for the GI50 in [5] and in assay [6] were 56.2 µM (inactive) and > 100 µM (inactive), respectively.
For `COc1ccc(C[C@H]2COC(=O)[C@@H]2Cc2cccc(Br)c2)cc1OC`, the GI50 in assay [9] was 33.3 µM (inactive); in assay [1] it was 26.6 µM (inactive); in assay [2], 19.1 µM (inactive); in [3], 24.2 µM (inactive).
In the case of `O=C(Nc1nccs1)c1c(O)nc2sccn2c1=O`, the GI50 in [9], in assay [1], in assay [2] and in assay [3] was > 10 µM (inactive) in each case.
Turning to `C1=CCN(c2ccccc2)CC1`, the GI50 in assay [4] is 63.5 µM (inactive); in assay [5], > 100 µM (inactive); in assay [7], 29.8 µM (inactive); in assay [8], > 100 µM (inactive).
For the compound `C/C(C[n+]1ccccc1)=N\N=C(N)N`, the GI50 in assay [9], in assay [1], in [2] and in assay [3] was > 100 µM (inactive) throughout.
Regarding `O=C(O)/C(O)=C1/C=C(c2ccccc2)c2ccccc21`, the GI50 in [4] was 22 µM (inactive); in assay [5], 18.6 µM (inactive); in [6] it was 22.2 µM (inactive); in assay [7], 31.4 µM (inactive); in assay [8] it was 28.6 µM (inactive).
For the compound `CN(N=O)c1nc2c(C(N)=O)ncn2s1`, the GI50 in assay [9] was 20 µM (inactive); in assay [1], 53.2 µM (inactive); in assay [2] it was 36.3 µM (inactive); in assay [3] it was 39.7 µM (inactive).
Consider `COc1ccc(-c2cc(N3CCN(c4ccccc4)CC3)c(C#N)c(=O)o2)cc1`, for which the GI50 in assay [4] was 4.88 µM (inactive); in [5], 40 µM (inactive); in assay [7] it was 22.6 µM (inactive); in assay [8], 21.5 µM (inactive).
Regarding `COc1oc(C2C/C(=C/C(C)=C/C(C)=C/C(C)=C/c3ccc([N+](=O)[O-])cc3)CO2)c(C)c(=O)c1C` (stereo not drawn), the GI50 in assay [9] is 8.2 µM (inactive); in assay [1], 3.01 µM (inactive); in [2], 15.8 µM (inactive).
As to `Cc1cc(C)c2c(O)cc(-c3cccc4ccccc34)nc2n1`, the GI50 in assay [9] is 2.71 µM (inactive); in assay [1], 0.172 µM (active); in assay [2], 2.22 µM (inactive); in [3], 0.52 µM (active).
For `NC(CP(=O)(O)O)C(=O)O` (stereo not drawn), the GI50 in assay [9], in assay [1], in assay [2] and in assay [3] was > 100 µM (inactive) throughout.
In the case of `O=C(CCc1ccc(O)cc1)NCCc1cccc(O)c1`, the GI50 in assay [9], in assay [1], in assay [2] and in assay [3] was > 50 µM (inactive) throughout.
